Measured values published in patent US20080249132A1, “Piperidine Carboxyamide Derivate Suitable as Tachykinin Receptor Antagonist” (priority 2005, published 2008).

Biological target: T1, recombinant human NK1 receptors (Homo sapiens, UniProt P25103)
T1 construct: expressed in transfected cells; membrane preparation
Assay: NK1 receptor filtration binding assay, displacement of [3H]-Substance P
Settings: displacement of [3H]-substance P from recombinant human NK1 receptors expressed in CHO cell membranes; average of at least two determinations; read-out: pKi (negative logarithm of the inhibition constant Ki) (converted)
Description: NK1-receptor binding affinity has been determined in vitro in filtration binding assay by measuring the compounds' ability to displace [^3H]-Substance P (SP) from recombinant human NK1 receptors stably expressed in Chinese Hamster Ovary (CHO) cell membranes prepared by using a modification of the method described by Beattie D. T. et al. (Br. J. Pharmacol, 116:3149-3157, 1995).
Briefly, ligand binding was performed in 0.4 ml of 50 mM HEPES, pH 7.4, containing 3 mM MnCl2, 0.02% BSA, 0.5 nM [^3H]-Substance P (30-56 Ci/mmol Amersham), a final membrane protein concentration of 30-50 μg/ml, and the test compounds. The incubation proceeded at room temperature for 40 min and was stopped by filtration. Non-specific binding was determined using excess of substance P (1 μM) and represents about 6-10% of the total binding. IC50 values of each compound were determined by an 8-point 10×-dilution inhibition curve. pKi values were calculated using the KD of [^3H]-Substance P determined in a separate experiment.
The affinity of the compound of the invention for NK1 receptor was determined using the NK1 receptor binding affinity method measuring in vitro the compounds' ability to displace [3H]—substance P (SP) from recombinant human NK1 receptors expressed in Chinese Hamster Ovary (CHO) cell membranes. […]

T1 sequence (P25103 whole entry): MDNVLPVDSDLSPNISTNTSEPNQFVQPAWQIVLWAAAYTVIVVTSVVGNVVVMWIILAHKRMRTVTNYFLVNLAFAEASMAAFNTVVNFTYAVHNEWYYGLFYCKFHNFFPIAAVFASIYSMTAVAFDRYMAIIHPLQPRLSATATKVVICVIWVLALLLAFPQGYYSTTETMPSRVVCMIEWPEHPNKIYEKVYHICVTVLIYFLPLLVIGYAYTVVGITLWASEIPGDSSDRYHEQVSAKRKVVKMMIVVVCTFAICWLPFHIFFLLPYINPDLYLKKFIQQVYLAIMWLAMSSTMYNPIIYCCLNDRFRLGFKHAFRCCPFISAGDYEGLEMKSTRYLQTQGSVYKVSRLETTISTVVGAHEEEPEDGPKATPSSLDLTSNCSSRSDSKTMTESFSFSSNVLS

- Ki: 0.02 nM
Structure (SMILES): CC(=O)NCCN[C@H]1CCN(C(=O)N(C)[C@H](C)c2cc(C(F)(F)F)cc(C(F)(F)F)c2)[C@@H](c2ccc(F)cc2C)C1 [Example 1, (2R,4S)-4-{[2-(acetylamino)ethyl]amino}-N-{(1R)-1-(3,5-bis(trifluoromethyl)phenyl)ethyl}-2-(4-fluoro-2-methylphenyl)-N-methyl-1-piperidinecarboxamide]
